Assays:
Full length Human HDAC6 = biological target: T1, Full length Human HDAC6 (Homo sapiens, UniProt Q9UBN7); assay: Caliper endpoint assay for HDAC enzymatic activity (HDAC6); assay type: biochemical; conditions: for IC50: in vitro enzymatic, Caliper endpoint assay, 30 min pre-incubation, 1 μM substrate peptide; for Selectivity (6 v 8): ratio of HDAC8 IC50/HDAC6 IC50
T1 construct: Full length Human HDAC6; FLAG (C); host or cells: baculovirus expression system
T1 sequence (Q9UBN7 1-1215): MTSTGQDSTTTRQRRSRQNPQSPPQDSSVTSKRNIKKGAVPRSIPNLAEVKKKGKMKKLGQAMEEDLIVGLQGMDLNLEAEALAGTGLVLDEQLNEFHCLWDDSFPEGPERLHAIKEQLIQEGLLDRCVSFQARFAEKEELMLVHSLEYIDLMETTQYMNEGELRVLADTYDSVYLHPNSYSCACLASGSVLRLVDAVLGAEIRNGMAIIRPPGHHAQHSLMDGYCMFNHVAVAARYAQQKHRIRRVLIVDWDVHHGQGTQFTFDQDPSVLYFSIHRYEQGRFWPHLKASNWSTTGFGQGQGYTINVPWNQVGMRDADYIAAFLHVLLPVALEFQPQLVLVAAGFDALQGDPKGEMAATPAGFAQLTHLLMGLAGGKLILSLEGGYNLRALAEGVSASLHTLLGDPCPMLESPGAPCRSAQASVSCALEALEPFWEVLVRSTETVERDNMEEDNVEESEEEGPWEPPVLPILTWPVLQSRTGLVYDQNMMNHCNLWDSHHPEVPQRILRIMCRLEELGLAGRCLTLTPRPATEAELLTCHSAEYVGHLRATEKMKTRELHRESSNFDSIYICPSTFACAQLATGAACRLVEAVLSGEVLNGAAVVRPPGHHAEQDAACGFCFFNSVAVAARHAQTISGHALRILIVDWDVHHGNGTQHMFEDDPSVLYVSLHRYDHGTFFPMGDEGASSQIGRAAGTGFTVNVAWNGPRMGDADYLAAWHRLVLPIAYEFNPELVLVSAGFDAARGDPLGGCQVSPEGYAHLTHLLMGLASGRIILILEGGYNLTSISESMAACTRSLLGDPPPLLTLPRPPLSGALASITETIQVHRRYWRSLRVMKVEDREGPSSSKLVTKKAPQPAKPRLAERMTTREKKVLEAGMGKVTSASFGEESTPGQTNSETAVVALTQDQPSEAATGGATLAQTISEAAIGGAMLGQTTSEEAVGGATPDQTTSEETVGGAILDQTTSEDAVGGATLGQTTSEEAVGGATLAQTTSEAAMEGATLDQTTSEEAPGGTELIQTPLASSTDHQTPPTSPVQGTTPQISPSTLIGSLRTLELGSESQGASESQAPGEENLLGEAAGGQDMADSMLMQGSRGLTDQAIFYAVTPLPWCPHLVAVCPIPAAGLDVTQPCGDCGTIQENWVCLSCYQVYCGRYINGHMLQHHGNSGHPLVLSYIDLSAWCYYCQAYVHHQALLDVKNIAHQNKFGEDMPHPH

Full length Human HDAC8 = biological target: T2, Full length Human HDAC8 (Homo sapiens, UniProt Q9BY41); assay: Caliper endpoint assay for HDAC enzymatic activity (HDAC8); assay type: biochemical; conditions: in vitro enzymatic, 30 min pre-incubation, 1 μM substrate peptide
T2 construct: Full length Human HDAC8; HIS (N); host or cells: baculovirus expression system
T2 sequence (Q9BY41 1-377): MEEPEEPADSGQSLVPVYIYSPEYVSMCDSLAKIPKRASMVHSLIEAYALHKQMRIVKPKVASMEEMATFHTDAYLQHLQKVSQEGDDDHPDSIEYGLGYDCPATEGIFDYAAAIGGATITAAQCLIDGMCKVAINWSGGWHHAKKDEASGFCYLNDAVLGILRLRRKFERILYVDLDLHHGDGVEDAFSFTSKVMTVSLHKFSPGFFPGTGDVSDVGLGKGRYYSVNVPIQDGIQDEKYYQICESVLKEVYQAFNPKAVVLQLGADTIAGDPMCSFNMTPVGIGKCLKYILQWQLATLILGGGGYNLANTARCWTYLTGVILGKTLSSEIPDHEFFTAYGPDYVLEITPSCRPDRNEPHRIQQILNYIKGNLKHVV

Compound | IC50 (Full length Human HDAC6) [µM] | Selectivity (6 v 8) (Full length Human HDAC6) | IC50 (Full length Human HDAC8) [µM]
CC[C@H]1Cc2c(F)cc(C(=O)NO)cc2CN1CC1CC2CCC(C1)N2C1CC1 (single isomer, unassigned) [Compound 576] | 0.001 to 0.1 | IV (IV: >100-1000) | 1 to 10
O=C(NO)c1cc(F)c2c(c1)CCN([C@@H]1CCCC3(CCC3)C1)C2 (single isomer, unassigned) [Compound 194] | 0.001 to 0.1 | V (V: >1000) | 10 to 100
CC[C@H]1Cc2c(F)cc(C(=O)NO)cc2CN1C1CC2(CCN(C(C)=O)CC2)C1 (single isomer, unassigned) [Compound 603] | 0.1 to 1 | IV (IV: >100-1000) | 10 to 100
O=C(NO)c1cc(F)c2c(c1)CCN([C@H]1CCNC3(CCC3)C1)C2 (single isomer, unassigned) [Compound 435] | 0.001 to 0.1 | IV (IV: >100-1000) | 1 to 10
CC(=O)N1CCC2(CC1)CC(N1CCc3cc(C(=O)NO)cc(F)c3C1)C2 [Compound 199, 2-(7-acetyl-7-azaspiro[3.5]nonan-2-yl)-8-fluoro-N-hydroxy-1,2,3,4-tetrahydroisoquinoline-6-carboxamide] | 0.001 to 0.1 | IV (IV: >100-1000) | 10 to 100
O=C(NO)c1cc(F)c2c(c1)CCN(C1CCC3(CCCC3)CC1)C2 [Compound 193, 8-fluoro-2-spiro[4.5]decan-8-yl-3,4-dihydro-1H-isoquinoline-6-carbohydroxamic acid] | 0.001 to 0.1 | V (V: >1000) | 10 to 100
O=C(NO)c1cc(F)c2c(c1)CCN(C1CCC13CNC3)C2 (stereo not shown) [Compound 301, 2-(2-azaspiro[3.3]heptan-7-yl)-8-fluoro-3,4-dihydro-1H-isoquinoline-6-carbohydroxamic acid] | 0.001 to 0.1 | IV (IV: >100-1000) | 1 to 10
Cc1cc2c(cc1C(=O)NO)CCN(C1CC3(CCCCC3)C1)C2 | > 100 | V (V: >1000) | 10 to 100
CC(=O)N1CC2(CC(N3CCc4cc(C(=O)NO)cc(F)c4C3)C2)C1 [Compound 292, 2-(2-acetyl-2-azaspiro[3.3]heptan-6-yl)-8-fluoro-N-hydroxy-1,2,3,4-tetrahydroisoquinoline-6-carboxamide] | 0.001 to 0.1 | IV (IV: >100-1000) | 10 to 100
O=C(NO)c1cc(F)c2c(c1)C[C@@H]1CCCCN1C2 [Compound 93] | 0.001 to 0.1 | IV (IV: >100-1000) | 1 to 10
CC(C)N1CC2(CCCCC2)CC[C@H]1Cc1cc(F)cc(C(=O)NO)c1 (single isomer, unassigned) [Compound 274] | 10 to 100 | I (I: 0.1-1) | 1 to 10
CC(=O)N1CCC[C@]2(C1)C[C@@H](N1CCc3cc(C(=O)NO)cc(F)c3C1)C2 (single isomer, unassigned) [Compound 349, 2-(6-acetyl-6-azaspiro[3.5]nonan-2-yl)-8-fluoro-3,4-dihydro-1H-isoquinoline-6-carbohydroxamic acid] | 0.001 to 0.1 | IV (IV: >100-1000) | 10 to 100
O=C(NO)c1cc(F)c2c(c1)CCN(C1CCC3(C1)CN(C1CC1)C3)C2 (stereo not shown) [Compound 390, 2-(2-cyclopropyl-2-azaspiro[3.4]octan-6-yl)-8-fluoro-3,4-dihydro-1H-isoquinoline-6-carbohydroxamic acid] | 0.1 to 1 | III (III: >10-100) | 10 to 100
CN1CC2(C[C@@H](N3CCc4cc(C(=O)NO)cc(F)c4C3)CCO2)C1 (single isomer, unassigned) [Compound 451] | 0.001 to 0.1 | IV (IV: >100-1000) | 1 to 10
CC[C@H]1Cc2c(F)cc(C(=O)NO)cc2CN1CC1C2CNCC1C2 (single isomer, unassigned) [Compound 529] | 0.001 to 0.1 | IV (IV: >100-1000) | 10 to 100
CNC12CC(CN3CCc4cc(C(=O)NO)cc(F)c4C3)(C1)C2 [Compound 487, 8-fluoro-2-[[3-(methylamino)-1-bicyclo[1.1.1]pentanyl]methyl]-3,4-dihydro-1H-isoquinoline-6-carbohydroxamic acid] | 0.001 to 0.1 | IV (IV: >100-1000) | 1 to 10
C[C@@H]1CC[C@@H]2c3c(F)cc(C(=O)NO)cc3CCN12 (single isomer, unassigned) [Compound 156] | 0.1 to 1 |  | 1 to 10
O=C(NO)c1cc(F)c2c(c1)CCN(C1CC3(CCCO3)C1)C2 (single isomer, unassigned) [Compound 191, 8-fluoro-N-hydroxy-2-(5-oxaspiro[3.4]octan-2-yl)-1,2,3,4-tetrahydroisoquinoline-6-carboxamide] | 0.001 to 0.1 | IV (IV: >100-1000) | 10 to 100
O=C(NO)c1cc(F)c2c(c1)CCN(CC1CC3(CCN(C4CC4)CC3)C1)C2 [Compound 470, 2-[(7-cyclopropyl-7-azaspiro[3.5]nonan-2-yl)methyl]-8-fluoro-3,4-dihydro-1H-isoquinoline-6-carbohydroxamic acid] | 0.001 to 0.1 | IV (IV: >100-1000) | 10 to 100
CN1CCCCC12CC(N1CCc3cc(C(=O)NO)cc(F)c3C1)C2 (stereo not shown) [Compound 352, 8-fluoro-2-(5-methyl-5-azaspiro[3.5]nonan-2-yl)-3,4-dihydro-1H-isoquinoline-6-carbohydroxamic acid] | 0.001 to 0.1 | V (V: >1000) | > 100
CN1C[C@@]2(CN3CCc4cc(C(=O)NO)cc(F)c4C3)C[C@@H]1CO2 [Compound 474, 8-fluoro-2-[[(1S,4R)-5-methyl-2-oxa-5-azabicyclo[2.2.1]heptan-1-yl]methyl]-3,4-dihydro-1H-isoquinoline-6-carbohydroxamic acid] | 0.001 to 0.1 | IV (IV: >100-1000) | 1 to 10
CN1Cc2cc(C(=O)NO)ccc2[C@@H]2CCCN21 (single isomer, unassigned) [Compound 160] | 0.1 to 1 |  | 0.1 to 1
CN1CC2(CN3CCc4cc(C(=O)NO)cc(F)c4C3)CC1C2 [Compound 490, 8-fluoro-2-[(2-methyl-2-azabicyclo[2.1.1]hexan-4-yl)methyl]-3,4-dihydro-1H-isoquinoline-6-carbohydroxamic acid] | 0.001 to 0.1 | IV (IV: >100-1000) | 1 to 10
CC[C@H]1Cc2c(F)cc(C(=O)NO)cc2CN1C1CCCCC1 (single isomer, unassigned) [Compound 583] | 0.1 to 1 | III (III: >10-100) | 10 to 100
CC(=O)N1CC2(CCC(N3CCc4cc(C(=O)NO)cc(F)c4C3)C2)C1 (stereo not shown) [Compound 391, 2-(2-acetyl-2-azaspiro[3.4]octan-6-yl)-8-fluoro-N-hydroxy-1,2,3,4-tetrahydroisoquinoline-6-carboxamide] | 0.001 to 0.1 | IV (IV: >100-1000) | 10 to 100
O=C(NO)c1cc(F)c2c(c1)CCN1CCC[C@@H]21 [Compound 79] | 0.001 to 0.1 | IV (IV: >100-1000) | 1 to 10

— patent US12655106B2 (Eikonizo Therapeutics, Inc., priority 2021, dated 2026)
